Laboratory results published in patent US10471046B2, “Method for treating, preventing, or reducing the risk of skin infection” (Melinta Subsidiary Corp., priority 2014, dated 2019).
Converted amounts (≈) assume the structure as drawn.

system: S. aureus; experiment: Minimum inhibitory concentrations (MICs) for S. aureus of exemplary compounds (Table 2); assay type: cell-based; details: Staphylococcus aureus, minimum inhibitory concentrations for S. aureus; read-out: MICs
Method in brief: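 Growth of S. aureus in media with or without compound, by broth microdilution in microtiter trays following NCCLS M7-A5 guidelines. Values are MICs in μg/mL.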

| Structure (SMILES) | MIC [µg/mL] |
| --- | --- |
| CC(=O)NC[C@H]1CN(c2ccc(-c3ccc(CNCc4ccc(-c5ccccc5)s4)cc3)c(F)c2)C(=O)O1 [Compound 4084, N-[3-(2-Fluoro-4′-{[(5-phenyl-thiophen-2-ylmethyl)-amino]-methyl}-biphenyl-4-yl)-2-oxo-oxazolidin-5-(S)-ylmethyl]-acetamide] | 128 (≈ 242 µM) |
| CC(=O)NC[C@H]1CN(c2ccc(-c3ccc(CNCC(=O)N4CCN(C(=O)OC(C)(C)C)CC4)cc3)c(F)c2)C(=O)O1 [Compound 4315, 4-[2-({4′-[5-(S)-(Acetylamino-methyl)-2-oxo-oxazolidin-3-yl]-2′-fluoro-biphenyl-4-ylmethyl}-amino)-acetyl]-piperazine-1-carboxylic acid tert-butyl ester] | 4 (≈ 6.85 µM) |
| CC(=O)NC[C@H]1CN(c2ccc(-c3ccc(C(=N)NCc4ccccn4)cc3)c(F)c2)C(=O)O1 [Compound 4097, N-{3-[2-Fluoro-4′-(N-pyridin-2-ylmethyl-carbamimidoyl)-biphenyl-4-yl]-2-oxo-oxazolidin-5-(S)-ylmethyl}-acetamide] | 16 (≈ 34.7 µM) |
| CC(=O)NC[C@H]1CN(c2ccc(-c3ccc(CNCCCNc4ncc(C(F)(F)F)cc4Cl)cc3)c(F)c2)C(=O)O1 [Compound 5015, N-[3-(4′-{[3-(3-Chloro-5-trifluoromethyl-pyridin-2-ylamino)-propylamino]-methyl}-2-fluoro-biphenyl-4-yl)-2-oxo-oxazolidin-5-(S)-ylmethyl]-acetamide] | 4 (≈ 6.73 µM) |
| CC(=O)NC[C@H]1CN(c2ccc(-c3ccc([C@H](CO)N4CCC4)cc3)c(F)c2)C(=O)O1 [Compound 1063, N-{3-[4′-(1-(R)-Azetidin-1-yl-2-hydroxy-ethyl)-2-fluoro-biphenyl-4-yl]-2-oxo-oxazolidin-5-(S)-ylmethyl}-acetamide] | 8 (≈ 18.7 µM) |
| COc1cc(CN(C)Cc2ccoc2)ccc1-c1ccc(N2C[C@H](CNC(C)=O)OC2=O)cc1F [Compound 4034, N-(3-{2-Fluoro-4′-[(furan-3-ylmethyl-methyl-amino)-methyl]-2′-methoxy-biphenyl-4-yl}-2-oxo-oxazolidin-5-(S)-ylmethyl)-acetamide] | 32 (≈ 66.5 µM) |
| CC(=O)NC[C@H]1CN(c2ccc(-c3ccc(CNCc4nc5ccccc5[nH]4)cc3)c(F)c2)C(=O)O1 [Compound 4092, N-[3-(4′-{[(1H-Benzoimidazol-2-ylmethyl)-amino]-methyl}-2-fluoro-biphenyl-4-yl)-2-oxo-oxazolidin-5-(S)-ylmethyl]-acetamide] | 4 (≈ 8.2 µM) |
| CC(=O)NC[C@H]1CN(c2ccc(-c3ccc(CNCc4cccn4S(=O)(=O)c4ccccc4)cc3)c(F)c2)C(=O)O1 [Compound 4100, N-[3-(4′-{[(1-Benzenesulfonyl-1H-pyrrol-2-ylmethyl)-amino]-methyl}-2-fluoro-biphenyl-4-yl)-2-oxo-oxazolidin-5-(S)-ylmethyl]-acetamide] | 4 (≈ 6.94 µM) |
| CSCCN(Cc1ccccc1)C[C@@H](O)c1ccc(-c2ccc(N3C[C@H](CNC(C)=O)OC3=O)cc2F)cc1 [Compound 4248, N-[3-(4′-{2-[Benzyl-(2-methylsulfanyl-ethyl)-amino]-1-(S)-hydroxy-ethyl}-2-fluoro-biphenyl-4-yl)-2-oxo-oxazolidin-5-(S)-ylmethyl]-acetamide] | 4 (≈ 7.25 µM) |
| CC(=O)NC[C@H]1CN(c2ccc(-c3ccc(CNC(=O)[C@@H]4C[C@@H](O)CN4)cc3)c(F)c2)C(=O)O1 [Compound 4301, 4-(R)-Hydroxy-pyrrolidine-2-(S)-carboxylicacid {4′-[5-(S)-(acetylamino-methyl)-2-oxo-oxazolidin-3-yl]-2′-fluoro-biphenyl-4-ylmethyl}-amide] | 8 (≈ 17 µM) |
| CC(=O)NC[C@H]1CN(c2ccc(-c3ccc(CNc4nc[nH]c4C(N)=O)cc3)c(F)c2)C(=O)O1 [Compound 2055, 5-({4′-[5-(S)-(Acetylamino-methyl)-2-oxo-oxazolidin-3-yl]-2′-fluoro-biphenyl-4-ylmethyl}-amino)-3H-imidazole-4-carboxylic acid amide] | 4 (≈ 8.57 µM) |
| CC(=O)NC[C@H]1CN(c2ccc(-c3ccc(Cc4nnn[nH]4)cc3)c(F)c2)C(=O)O1 [Compound 1007, N-{3-[2-Fluoro-4′-(1H-tetrazol-5-(S)-ylmethyl)-biphenyl-4-yl]-2-oxo-oxazolidin-5-(S)-ylmethyl}-acetamide] | 8 (≈ 19.5 µM) |
| CC(=O)NC[C@H]1CN(c2ccc(-c3ccc(Cn4cc(CNC(=O)CN)nn4)cc3)c(F)c2)C(=O)O1 [Compound 1014, N-(1-{4′-[5-(S)-(Acetylamino-methyl)-2-oxo-oxazolidin-3-yl]-2′-fluoro-biphenyl-4-ylmethyl}-1H-[1,2,3]triazol-4-ylmethyl)-2-amino-acetamide] | 8 (≈ 16.1 µM) |

The remaining lines, values ahead:

| MIC [µg/mL] | Structure (SMILES) |
| --- | --- |
| 2 (≈ 4.22 µM) | CC(=O)NC[C@H]1CN(c2ccc(-c3ccc(CNCc4ccco4)c(F)c3F)c(F)c2)C(=O)O1 [Compound 4088, N-[2-Oxo-3-(2,2′,3′-trifluoro-4′-{[(furan-2-ylmethyl)-amino]-methyl}-biphenyl-4-yl)-oxazolidin-5-(S)-ylmethyl]-acetamide] |
| 2 (≈ 4.01 µM) | CC(=O)NC[C@H]1CN(c2ccc(-c3ccc(CN(Cc4csnn4)C(N)=O)cc3)c(F)c2)C(=O)O1 [Compound 4299, N-{3-[2-Fluoro-4′-(1-[1,2,3]thiadiazol-4-ylmethyl-ureidomethyl)-biphenyl-4-yl]-2-oxo-oxazolidin-5-(S)-ylmethyl}-acetamide] |
| 2 (≈ 3.87 µM) | CC(=O)NC[C@H]1CN(c2ccc(-c3ccc(CNCc4[nH]ncc4Br)cc3)c(F)c2)C(=O)O1 [Compound 4169, N-[3-(4′-{[(4-Bromo-2H-pyrazol-3-ylmethyl)-amino]-methyl}-2-fluoro-biphenyl-4-yl)-2-oxo-oxazolidin-5-(S)-ylmethyl]-acetamide] |
| 2 (≈ 4.25 µM) | CC(=O)NC[C@H]1CN(c2ccc(-c3ccc(CN4CCN(CCO)CC4)cc3)c(F)c2)C(=O)O1 [Compound 1029, N-(3-{2-Fluoro-4′-[4-(2-hydroxy-ethyl)-piperazin-1-ylmethyl]-biphenyl-4-yl}-2-oxo-oxazolidin-5-(S)-ylmethyl)-acetamide] |
| 2 (≈ 3.79 µM) | CC(=O)NC[C@H]1CN(c2ccc(-c3ccc(CNCc4cc(-c5ccccc5)oc4C)cc3)c(F)c2)C(=O)O1 [Compound 4130, N-[3-(2-Fluoro-4′-{[(2-methyl-5-phenyl-furan-3-ylmethyl)-amino]-methyl}-biphenyl-4-yl)-2-oxo-oxazolidin-5-(S)-ylmethyl]-acetamide] |
| 2 (≈ 4.38 µM) | CSC1=NCCN1Cc1ccc(-c2ccc(N3C[C@H](CNC(C)=O)OC3=O)cc2F)cc1 [Compound 1078, N-{3-[2-Fluoro-4′-(2-methylsulfanyl-4,5-dihydro-imidazol-1-ylmethyl)-biphenyl-4-yl]-2-oxo-oxazolidin-5-(S)-ylmethyl}-acetamide] |
| 2 (≈ 3.61 µM) | CC(=O)NC[C@H]1CN(c2ccc(-c3ccc(CN(Cc4nnn(C)n4)C(=O)OC(C)(C)C)cc3)c(F)c2)C(=O)O1 [Compound 4281, {4′-[5-(S)-(Acetylamino-methyl)-2-oxo-oxazolidin-3-yl]-2′-fluoro-biphenyl-4-ylmethyl}-(2-methyl-2H-tetrazol-5-ylmethyl)-carbamic acid tert-butyl ester] |
| 1 (≈ 2.36 µM) | CC(=O)NC[C@H]1CN(c2ccc(-c3ccc(CNn4cnnc4)cc3)c(F)c2)C(=O)O1 [Compound 2046, N-{3-[2-Fluoro-4′-([1,2,4]triazol-4-ylaminomethyl)-biphenyl-4-yl]-2-oxo-oxazolidin-5-(S)-ylmethyl}-acetamide] |
| 1 (≈ 2.12 µM) | CC(=O)NC[C@H]1CN(c2ccc(-c3ccc(CNCc4nccs4)c(F)c3)c(F)c2)C(=O)O1 [Compound 4154, N-[3-(2,3′-Difluoro-4′-{[(thiazol-2-ylmethyl)-amino]-methyl}-biphenyl-4-yl)-2-oxo-oxazolidin-5-(S)-ylmethyl]-acetamide] |
| 1 (≈ 2.25 µM) | CC(=O)NC[C@H]1CN(c2ccc(-c3ccc(CN4CCC(F)CC4)cc3)c(F)c2)C(=O)O1 [Compound 1094, N-{3-[2-Fluoro-4′-(4-fluoro-piperidin-1-ylmethyl)-biphenyl-4-yl]-2-oxo-oxazolidin-5-(S)-ylmethyl}-acetamide] |
| 1 (≈ 2.02 µM) | CC(=O)NC[C@H]1CN(c2ccc(-c3ccc(CNCCSc4ccccn4)cc3)c(F)c2)C(=O)O1 [Compound 5004, N-[3-(2-Fluoro-4′-{[2-(pyridin-2-ylsulfanyl)-ethylamino]-methyl}-biphenyl-4-yl)-2-oxo-oxazolidin-5-(S)-ylmethyl]-acetamide] |
| 1 (≈ 2.16 µM) | CC(=O)NC[C@H]1CN(c2ccc(-c3ccc(C(=O)NCc4ccncc4)nc3)c(F)c2)C(=O)O1 [Compound 4188, 5-{4-[5-(S)-(Acetylamino-methyl)-2-oxo-oxazolidin-3-yl]-2-fluoro-phenyl}-pyridine-2-carboxylic acid (pyridin-4-ylmethyl)-amide] |
| 0.5 (≈ 0.966 µM) | CC(=O)NC[C@H]1CN(c2ccc(-c3ccc(CNCc4cc(Br)no4)cc3)c(F)c2)C(=O)O1 [Compound 4253, N-[3-(4′-{[(3-Bromo-isoxazol-5-ylmethyl)-amino]-methyl}-2-fluoro-biphenyl-4-yl)-2-oxo-oxazolidin-5-(S)-ylmethyl]-acetamide] |
| 0.5 (≈ 1.04 µM) | CCOC(=O)c1cnn(Cc2ccc(-c3ccc(N4C[C@H](CNC(C)=O)OC4=O)cc3F)cc2)c1 [Compound 1049, 1-{4′-[5-(S)-(Acetylamino-methyl)-2-oxo-oxazolidin-3-yl]-2′-fluoro-biphenyl-4-ylmethyl}-1H-pyrazole-4-carboxylic acid ethyl ester] |
| 0.25 (≈ 0.548 µM) | CSc1nnn(Cc2ccc(-c3ccc(N4C[C@H](CNC(C)=O)OC4=O)cc3F)cc2)n1 [Compound 1080, N-{3-[2-Fluoro-4′-(5-methylsulfanyl-tetrazol-2-ylmethyl)-biphenyl-4-yl]-2-oxo-oxazolidin-5-(S)-ylmethyl}-acetamide] |
| 0.25 (≈ 0.549 µM) | CC(=O)NC[C@H]1CN(c2ccc(-c3ccc(CCSc4cnn[nH]4)cc3)c(F)c2)C(=O)O1 [Compound 2026, N-(3-{2-Fluoro-4′-[2-(3H-[1,2,3]triazol-4-ylsulfanyl)-ethyl]-biphenyl-4-yl}-2-oxo-oxazolidin-5-(S)-ylmethyl)-acetamide] |

same assay, conditions: Staphylococcus aureus, read-out: MICs

| Structure (SMILES) | MIC [µg/mL] |
| --- | --- |
| CC(=O)NC[C@H]1CN(c2cc(F)c(-c3ccc(Cn4cc(CO)nn4)cc3)c(F)c2)C(=O)O1 [Compound 1018, N-{3-[2,6-Difluoro-4′-(4-hydroxymethyl-[1,2,3]triazol-1-ylmethyl)-biphenyl-4-yl]-2-oxo-oxazolidin-5-(S)-ylmethyl}-acetamide] | 1 (≈ 2.19 µM) |
